Measured values published in patent publication US20230235378A1, “LZHEIMER'S DISEASE-SPECIFIC ALTERATIONS OF PROTEIN KINASE C EPSILON (PKC-EPSILON PROTEIN LEVELS” (WEST VIRGINIA UNIVERSITY BOARD OF GOVERNORS ON BEHALF OF …, priority 2010, published 2023).

Tests used:
purified PKC = target: T1, purified PKC (Homo sapiens, UniProt Q02156); assay: PKC isozyme specificity: purified PKC preincubated with compound, activity measured radiometrically; assay type: biochemical; conditions: for concentration needed to activate PKC, relative to BR-101 (DCP-LA): compared with BR-101 (DCP-LA); for activation of purified PKC: used as methyl esters
T1 construct: purchased Calbiochem
T1 sequence (Q02156 1-737): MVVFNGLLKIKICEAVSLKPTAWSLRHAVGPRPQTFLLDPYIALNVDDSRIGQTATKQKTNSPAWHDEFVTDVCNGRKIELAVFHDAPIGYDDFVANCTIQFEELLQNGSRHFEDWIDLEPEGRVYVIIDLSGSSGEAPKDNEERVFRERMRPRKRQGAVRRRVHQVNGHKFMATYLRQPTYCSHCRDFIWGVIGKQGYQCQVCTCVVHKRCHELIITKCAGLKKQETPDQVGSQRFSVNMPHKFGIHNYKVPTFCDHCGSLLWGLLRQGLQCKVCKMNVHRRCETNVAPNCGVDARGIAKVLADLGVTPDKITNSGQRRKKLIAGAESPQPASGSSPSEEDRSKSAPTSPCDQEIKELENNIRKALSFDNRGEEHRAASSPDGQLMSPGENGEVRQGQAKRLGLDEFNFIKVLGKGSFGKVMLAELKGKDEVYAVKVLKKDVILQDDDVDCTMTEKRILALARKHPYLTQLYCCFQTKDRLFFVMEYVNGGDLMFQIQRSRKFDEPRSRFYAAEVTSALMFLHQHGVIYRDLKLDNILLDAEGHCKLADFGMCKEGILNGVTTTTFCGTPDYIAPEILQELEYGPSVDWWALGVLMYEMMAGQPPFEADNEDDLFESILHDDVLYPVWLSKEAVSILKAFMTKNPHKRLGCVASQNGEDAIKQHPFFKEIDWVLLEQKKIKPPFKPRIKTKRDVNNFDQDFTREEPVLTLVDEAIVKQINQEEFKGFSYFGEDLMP
Experimental: (§1) Protein Kinase C Assay. Rat hippocampal cells were cultured and scraped in 0.2 ml homogenization buffer (20 mM Tris-HCl, pH 7.4, 50 mM NaF, 1 μg/ml leupeptin, and 0.1 mM PMSF) and homogenized by sonication in a Marsonix micro-probe sonicator (5 sec, 10 W). To measure PKC, 10 μl of cell homogenate or purified PKC isozyme (purchased from Calbiochem) was incubated for 15 min at 37° C. in the presence of 10 μM histones, 4.89 mM CaCl2, 1.2 μg/μl phosphatidyl-L-serine, 0.18 μg/μl 1,2-dioctanoyl-sn-glycerol, 10 mM MgCl2, 20 mM HEPES (pH 7.4), 0.8 mM EDTA, 4 mM EGTA, 4% glycerol, 8 μg/ml aprotinin, 8 μg/ml leupeptin, and 2 mM benzamidine. 0.5 μCi [γ-32P]ATP was added and 32P-phosphoprotein formation was measured by adsorption onto phosphocellulose as described previously. Nelson and Alkon, J. Neurochemistry. 1995; 65: 2350-57. For measurements of activation by BR-101 (DCP-LA) and similar compounds, PKC activity was measured in the absence of diacylglycerol and phosphatidylserine, as described by Kanno et al., and PKC δ, ε, η, and were measured in the absence of added EGTA and CaCl2, as described by Kanno et al., J. Lipid Res. 2006; 47: 1146-50. Low concentrations of Ca2+ are used because high Ca2+ interacts with the PKC phosphatidylserine binding site and prevents activation. For measurements of bryostatin activation, 1,2-diacylglycerol was omitted unless otherwise stated.
To determine their PKC isozyme specificity, the new compounds were preincubated with purified PKC for five minutes and the PKC activity was measured radiometrically.

PKC [1] = assay: PKC activity in cultured rat hippocampal H19-7/IGF-IR cells; assay type: cell-based; conditions: 8 h; data not shown
Experimental: Cell Culture. Rat hippocampal H19-7/IGF-IR cells (ATCC, Manassas, Va.) were plated onto poly-L-lysine coated plates and grown at 35° C. in DMEM/10% FCS for several days until about 50% coverage was obtained. The cells were then induced to differentiate into a neuronal phenotype by replacing the medium with 5 ml N2 medium containing 10 ng/ml basic fibroblast growth factor at 39° C. and grown in T-75 flasks at 37° C. Human SH-SY5Y neuroblastoma cells (ATCC) were cultured in 45% F 12K/45% MEM/10% FCS. Mouse N2A neuroblastoma cells were cultured in DMEM/10% FCS without glutamine. Rat hippocampal neurons from 18-day-old embryonic
as §1
PKC activators that bind to the diacylglycerol binding site, including bryostatin, gnidimacrin, and phorbol esters, produce a transient activation of PKC activity, followed by a prolonged downregulation. Nelson et al., Trends in Biochem. Sci. 2009; 34: 136-45. This was confirmed in cultured rat hippocampal cells. Incubation of rat 1119-7/IGF-IR cells with (0.04 nM and 0.2 nM) bryostatin produced a 2-fold activation that lasted 30 min, followed by a 20% downregulation that returned to baseline by 24 h (data not shown). […] This sustained activation was only observed in primary neurons.

PKC [2] = conditions: read-out: EC50 (affinity for PKC); cited from earlier work
Aß = conditions: 1 μM, 8 h, cultured COS cells; cited from earlier work
PKC-ε = PKC-ε level in skin fibroblasts treated with oligomeric Aß1-42 (western blot); assay type: cell-based, human
Experimental: Immunoblot Analysis: Protein lysates (20 μg of protein each) were boiled in 2× Laemmli buffer for 10 min and separated using a 4-20% gradient Tris-Glycine gels. Separated proteins were transferred to nitrocellulose membrane and the membrane was blocked in BSA at room temperature (RT) for 15 min and incubated with 1:2000 dilution anti-PKC-ε rabbit polyclonal antibody (Santa Cruz Biotechnology, Santa Cruz, Calif.; Cat No: sc-214), and 1:5000 dilution anti-ß-tubulin, class III rabbit monoclonal antibody (Millipore Corporation, Billerica Mass., Cat No: 04-1049) for 1 hr at RT. After the incubation, the membrane fractions were washed 3× with standard western blot washing buffer and further incubated with alkaline phosphatase conjugated secondary antibody (Jackson Immunoresearch Laboratories, USA) at 1:10000 dilution for 45 min. The membrane fractions were finally washed 3× with standard western blot washing buffer and developed using the 1-step NBT-BCIP substrate (Thermo Scientific, Rockford, Ill.). Signal intensities of the images were recorded in the ImageQuant RT-ECL (GE Life Sciences, Piscataway, N.J.) and densitometric quantification was performed using the IMAL software (Blanchette Rockefeller Neurosciences Institute, Morgantown, W. Va.). Intensities quantified in this way, for PKC-ε were normalized against ß-tubulin for each lane.
Preparation of Soluble Oligomeric Aß: Oligomeric Aß was prepared following the method described by Noguchi et al., (2009). Aß generated by this method was reported to be highly neurotoxic, 10-15 nm spherical Aß assemblies termed as amylospheroids (ASPDs). […]
Treatment of skin fibroblasts with oligomeric Aß1-42: Skin fibroblasts both from AD and AC cases were cultured for 7 days to 100% confluence. […] The resulting band intensities for PKC-ε were quantified using ImageQuant RT-ECL (GE Life Sciences, USA) and densitometric analysis was performed using the IMAL software (Blanchette Rockefeller Neurosciences Institute, Morgantown, W. Va.).

In the case of `CCCCCC1OC1C/C=C\CCCCCCCC(=O)OC` (stereo in doubt) [BR-117, vernolic acid methyl ester], the “effect on PKC” value (purified PKC) is reported as “little or no effect”.
In the case of `CCC1CC1CC1CC1CC1CC1CC1CC1CC1CC1CCCC(=O)OC` (stereo not drawn) [BR-114], the “concentration needed to activate PKC, relative to BR-101 (DCP-LA)” value (purified PKC) is reported as “approx. 100 times lower” and the “activation of purified PKC” value (purified PKC) is reported as “activated purified PKC to a similar extent”.
For `CCCCCC1CC1CC1CC1CC1CC1CC1CC1CCCC(=O)OC` (stereo not drawn) [BR-115, methyl 4-(2-((2-((2-((pentylcyclopropyl)methyl)cyclopropyl)methyl)cyclopropyl)methyl)cyclopropyl)butanoate methyl ester], the “concentration needed to activate PKC, relative to BR-101 (DCP-LA)” value (purified PKC) was “approx. 100 times lower” and the “activation of purified PKC” value (purified PKC) was “activated purified PKC to a similar extent”.
For `CCCCCCCCCCCCCC(=O)O[C@@H]1[C@@H](C)[C@@]2(O)[C@@H](C=C(CO)C[C@]3(O)C(=O)C(C)=C[C@@H]23)[C@@H]2C(C)(C)[C@]12OC(C)=O` [PMA, phorbol 12-myristate 13-acetate], the “downregulation of PKC activity” value (PKC [1]) is given as “strongly downregulated” and the EC50 (PKC [2]) is given as […].
In the case of `CCCC(=O)O[C@@H]1[C@@H](C)[C@@]2(O)[C@@H](C=C(CO)C[C@]3(O)C(=O)C(C)=C[C@@H]23)[C@@H]2C(C)(C)[C@]12OC(=O)CCC` [PdBu, Phorbol-12,13-dibutyrate], the “change in Aß” value (Aß) is listed as “increase in Aß”.
In the case of “Linoleic alcohol cyclopropanated [BR-105]”, the “effect on PKC” value (purified PKC) is reported as “little or no effect”.
With “Linolenyl alcohol cyclpropanated [BR-104]” the “effect on PKC” value (purified PKC) was “little or no effect”.
For “Soluble Aß oligomer: soluble >100 kDa oligomers (amylospheroids) prepared from synthetic Aß1-42 by the method of Noguchi et al.”, the “PKC-ε in age-matched control (AC) skin fibroblasts” value (PKC-ε; 500 nM, 24 hrs, five AC cases) was “decreases”, the “PKC-ε in AD skin fibroblasts” value (PKC-ε; 500 nM, 24 hrs, five AD cases) was “did not show decrease in expression” and the “AC-AD ratio of normalized PKC-ε in treated cells” value (PKC-ε; untreated cells 1.4) was about 1.
With “Vernolic acid cyclopropanated methyl ester [BR-109]” the “concentrations at which PKC was inhibited” value (purified PKC) was “above 1 μM”.
In the case of epoxystearic acid [BR-116], the “effect on PKC” value (purified PKC) is reported as “little or no effect”.
